These results are taken from patent US20060263802A1 (priority 2003, published 2006).

What all share (type): binding
For test [1], the system named is human monoclonal antibody CRJB.
Test [2] relates to human monoclonal antibody CRJA.
The subject of test [3] is human monoclonal antibody CRJB. The source holds these as a separate data set.
Test [4] deals with human monoclonal antibody CR57.
Test [5] concerns human monoclonal antibody CRJA. The source holds these as a separate data set.
The test system of test [6] is human monoclonal antibody CR57. The source holds these as a separate data set.

In the case of ACKLKLCGVLGLRLM, the “Binding of CRJB to linear peptide (PEPSCAN-ELISA signal)” value (“Binding of CRJB to linear peptide” below) in test [1] worked out at 117. Further, the “Binding of CRJA (10 μg/ml) to looped/cyclic peptide (PEPSCAN-ELISA)” value in test [2] was 71. The “Binding of CRJB (10 μg/ml) to looped/cyclic peptide (PEPSCAN-ELISA)” value in test [3] amounted to 92. Besides, the “Binding of CR57 (10 μg/ml) to looped/cyclic peptide (PEPSCAN-ELISA)” value in test [4] worked out at 111. The “Binding of CRJA to linear peptide (PEPSCAN-ELISA signal)” value (shortened to “Binding of CRJA to linear peptide”) in test [5] is recorded as 79. Besides, in test [6], the “Binding of CR57 to linear peptide (PEPSCAN-ELISA signal)” value (“Binding of CR57 to linear peptide” for short) came to 148, the “binding of antibody CR57 to linear peptide (PEPSCAN OD)” value is given as “bound” and the “strength of binding of CR57 (OD value compared with the other peptides / twice the average value)” value is “lower than twice the average value”.

Turning to VDERGLYKSLKGACK, the “Binding of CRJB to linear peptide” value in test [1] was 108. Further, in test [2], the “Binding of CRJA (10 μg/ml) to looped/cyclic peptide (PEPSCAN-ELISA)” value was found to be 96. The “Binding of CRJB (10 μg/ml) to looped/cyclic peptide (PEPSCAN-ELISA)” value in test [3] amounted to 80. In addition, the “Binding of CR57 (10 μg/ml) to looped/cyclic peptide (PEPSCAN-ELISA)” value in test [4] was 105. In addition, the “Binding of CRJA to linear peptide” value in test [5] turned out to be 82. Besides, the “Binding of CR57 to linear peptide” value in test [6] came out at 50.

As to LDALESIMTTKSVSF, the “Binding of CRJB to linear peptide” value in test [1] turned out to be 116. The “Binding of CRJA (10 μg/ml) to looped/cyclic peptide (PEPSCAN-ELISA)” value in test [2] amounted to 90. The “Binding of CRJB (10 μg/ml) to looped/cyclic peptide (PEPSCAN-ELISA)” value in test [3] was 106. The “Binding of CR57 (10 μg/ml) to looped/cyclic peptide (PEPSCAN-ELISA)” value in test [4] worked out at 108. Moreover, in test [5], the “Binding of CRJA to linear peptide” value is reported as 92. Besides, in test [6], the “Binding of CR57 to linear peptide” value was 97.

For the sequence NLVVEDEGCTNLSGF, the “Binding of CRJB to linear peptide” value in test [1] is 119. Also, in test [2], the “Binding of CRJA (10 μg/ml) to looped/cyclic peptide (PEPSCAN-ELISA signal)” value amounted to 74. In addition, the “Binding of CRJB (10 μg/ml) to looped/cyclic peptide (PEPSCAN-ELISA signal)” value in test [3] is recorded as 92. Further, in test [4], the “Binding of CR57 (10 μg/ml) to looped/cyclic peptide (PEPSCAN-ELISA signal)” value came to 106. In addition, the “Binding of CRJA to linear peptide” value in test [5] was 85. Moreover, the “Binding of CR57 to linear peptide” value in test [6] came to 75.

In the case of KFPIYTILDKLGPWS, the “Binding of CRJB to linear peptide” value in test [1] was determined as 97. For the same sequence, in test [2], the “Binding of CRJA (10 μg/ml) to looped/cyclic peptide (PEPSCAN-ELISA signal)” value is 43. For the same sequence, the “Binding of CRJB (10 μg/ml) to looped/cyclic peptide (PEPSCAN-ELISA signal)” value in test [3] worked out at 64. In addition, the “Binding of CR57 (10 μg/ml) to looped/cyclic peptide (PEPSCAN-ELISA signal)” value in test [4] turned out to be 72. For the same sequence, the “Binding of CRJA to linear peptide” value in test [5] was 65. Moreover, in test [6], the “Binding of CR57 to linear peptide” value came out at 71.

In the case of DGTWVAMQTSNETKW, the “Binding of CRJB to linear peptide” value in test [1] turned out to be 114. Further, the “Binding of CRJA (10 μg/ml) to looped/cyclic peptide (PEPSCAN-ELISA)” value in test [2] stood at 45. The “Binding of CRJB (10 μg/ml) to looped/cyclic peptide (PEPSCAN-ELISA)” value in test [3] is recorded as 58. Also, the “Binding of CR57 (10 μg/ml) to looped/cyclic peptide (PEPSCAN-ELISA)” value in test [4] is recorded as 56. Also, the “Binding of CRJA to linear peptide” value in test [5] is 63. Besides, the “Binding of CR57 to linear peptide” value in test [6] is on record as 69.

Consider MAGDPRYEESLHNPY, for which, in test [1], the “Binding of CRJB to linear peptide” value was 116. Further, in test [2], the “Binding of CRJA (10 μg/ml) to looped/cyclic peptide (PEPSCAN-ELISA signal)” value was found to be 71. The “Binding of CRJB (10 μg/ml) to looped/cyclic peptide (PEPSCAN-ELISA signal)” value in test [3] is given as 62. The “Binding of CR57 (10 μg/ml) to looped/cyclic peptide (PEPSCAN-ELISA signal)” value in test [4] was 65. The “Binding of CRJA to linear peptide” value in test [5] came to 71. Further, the “Binding of CR57 to linear peptide” value in test [6] is 64.

Regarding FRRLSHLRKLVPGFG, in test [1], the “Binding of CRJB to linear peptide” value was determined as 108. Besides, the “Binding of CRJA (10 μg/ml) to looped/cyclic peptide (PEPSCAN-ELISA)” value in test [2] worked out at 111. Also, the “Binding of CRJB (10 μg/ml) to looped/cyclic peptide (PEPSCAN-ELISA)” value in test [3] was 54. Besides, in test [4], the “Binding of CR57 (10 μg/ml) to looped/cyclic peptide (PEPSCAN-ELISA)” value is recorded as 128. In test [5], the “Binding of CRJA to linear peptide” value was found to be 106. Also, the “Binding of CR57 to linear peptide” value in test [6] was determined as 90.

On to GFSYMELKVGYILAI, for which the “Binding of CRJB to linear peptide” value in test [1] came to 111. The “Binding of CRJA (10 μg/ml) to looped/cyclic peptide (PEPSCAN-ELISA signal)” value in test [2] is recorded as 71. Further, the “Binding of CRJB (10 μg/ml) to looped/cyclic peptide (PEPSCAN-ELISA signal)” value in test [3] is on record as 57. Moreover, in test [4], the “Binding of CR57 (10 μg/ml) to looped/cyclic peptide (PEPSCAN-ELISA signal)” value came out at 77. Moreover, the “Binding of CRJA to linear peptide” value in test [5] was found to be 91. Also, in test [6], the “Binding of CR57 to linear peptide” value is recorded as 65.

As for FSYMELKVGYILAIK, the “Binding of CRJB to linear peptide” value in test [1] is listed as 112. The “Binding of CRJA (10 μg/ml) to looped/cyclic peptide (PEPSCAN-ELISA signal)” value in test [2] stood at 96. Also, the “Binding of CRJB (10 μg/ml) to looped/cyclic peptide (PEPSCAN-ELISA signal)” value in test [3] was 72. For the same sequence, in test [4], the “Binding of CR57 (10 μg/ml) to looped/cyclic peptide (PEPSCAN-ELISA signal)” value was found to be 104. Besides, the “Binding of CRJA to linear peptide” value in test [5] came out at 120. The “Binding of CR57 to linear peptide” value in test [6] is recorded as 89.

For GSETCGFVDERGLYK, the “Binding of CRJB to linear peptide” value in test [1] turned out to be 115. The “Binding of CRJA (10 μg/ml) to looped/cyclic peptide (PEPSCAN-ELISA)” value in test [2] is 64. Also, the “Binding of CRJB (10 μg/ml) to looped/cyclic peptide (PEPSCAN-ELISA)” value in test [3] amounted to 71. The “Binding of CR57 (10 μg/ml) to looped/cyclic peptide (PEPSCAN-ELISA)” value in test [4] came to 64. The “Binding of CRJA to linear peptide” value in test [5] came out at 56. For the same sequence, in test [6], the “Binding of CR57 to linear peptide” value is 57.

As to TKESLVIISPSVADL, the “Binding of CRJB to linear peptide” value in test [1] stood at 112. The “Binding of CRJA (10 μg/ml) to looped/cyclic peptide (PEPSCAN-ELISA signal)” value in test [2] is 88. Also, the “Binding of CRJB (10 μg/ml) to looped/cyclic peptide (PEPSCAN-ELISA signal)” value in test [3] is reported as 80. The “Binding of CR57 (10 μg/ml) to looped/cyclic peptide (PEPSCAN-ELISA signal)” value in test [4] came to 99. The “Binding of CRJA to linear peptide” value in test [5] was 102. In test [6], the “Binding of CR57 to linear peptide” value is 86.
